From patent US10858369B2, “Pseudopolymorphic forms of a HIV protease inhibitor” (Janssen Sciences Ireland Unlimited Company, priority 2002, dated 2020) come the findings set out here.

What all share (type): physicochemical
A short description of data set [1]: Fractions of Form B characterized with TG, DSC and IR. Also on record: key to IR: ~Hydrate, Ref: ~hydrate, Ref: identical with reference. The text has this:
Different fractions of Form B were characterized with thermogravimetry (TG), differential scanning calorimetry (DSC) and infrared spectroscopy (IR).

Data set [2] in a line: Aqueous solubility in solvents with different pH (excess solute equilibrated at 20° C., UV spectrometry). The protocol: Further solubility investigations were performed in function of pH. […] An excess of the solute was equilibrated with the solvent at 20° C. for at least 24 hours. After removing the undissolved compound, the concentration in solution was determined using UV spectrometry.
Aqueous solubilities of Form B were measured in solvents with different pH. An excess of the solute was equilibrated with the solvent at 20° C. for at least 24 hours. After removing the undissolved compound, the concentration in solution was determined using UV spectrometry.
Aqueous solubilities of Form K were measured in solvents with different pH. An excess of the solute was equilibrated with the solvent at 20° C. for at least 48 hours. After removing the undissolved compound, the concentration in solution was determined using UV spectrometry.

The nature of data set [3]: Adsorption-Desorption tests (vapor sorption, weight change with respect to atmospheric humidity, 25° C.). As to the method: drying temperature: 40° C.
equilibrium: ≤0.05% in 5 min. or 60 min.
data interval: 0.05% or 2 min.
At the drying step about 0.6% weight loss was registered.
About 21 mg of Form K were transferred into a VTI vapor sorption analyzer model SGA100 and the weight change with respect to the atmospheric humidity was recorded at the following conditions:
drying temperature: 30° C.
data interval: 0.05% or 2.0 min.
Form K is hygroscopic. […] Form K adsorbed up to 1.5% water at high relative humidity.
A different study of the adsorption and desorption of water by Form K at 25° C. at different conditions of relative humidity was investigated on an amount of about 18 mg of the mesylate solvate. The weight change as a function of relative humidity was registered.

Setting [4] is: initial drying step (drying temperature 40° C. Form A, 30° C. Form K).
The mark [5] stands for this setting: different study, about 18 mg, 25° C., FIG. 26.

As usually defined, the solubility (thermodynamic) is solubility found after equilibrating the solid with the medium.

≈ marks a conversion by molar mass, not a printed value.

`CC(C)CN(C[C@@H](O)[C@H](Cc1ccccc1)NC(=O)OC1CO[C@H]2OCC[C@@H]12)S(=O)(=O)c1ccc(N)cc1` (single isomer, unassigned) [Form B fraction 1]: in data set [1] (after ADS/DES), the IR entry was “±Hydrate,” and the “TG % weight change <100° C.” value is reported as 4.30%. Also, in data set [1] (fraction as such), the “DSC Max (° C.)” value is 69.1 °C; the IR result is on record as “Hydrate, Ref”; the “TG % weight change <100° C.” value was found to be 5.65%.
`CC(C)CN(C[C@@H](O)[C@H](Cc1ccccc1)NC(=O)OC1CO[C@H]2OCC[C@@H]12)S(=O)(=O)c1ccc(N)cc1` (single isomer, unassigned) [Form B fraction 2]: in data set [1] (after 5 d 40° C./75% RH), the “DSC Max (° C.)” value was determined as 74.1 °C; the IR result is given as “~Hydrate, Ref”; the “TG % weight change <100° C.” value is listed as 3.56%. Further, in data set [1] (fraction as such), the “DSC Max (° C.)” value stood at 75.6 °C; the IR entry is recorded as “~Hydrate, Ref”; the “TG % weight change <100° C.” value is 5.91%.
On to `CC(C)CN(C[C@@H](O)[C@H](Cc1ccccc1)NC(=O)OC1CO[C@H]2OCC[C@@H]12)S(=O)(=O)c1ccc(N)cc1` (single isomer, unassigned) [Form B fraction 3], for which, in data set [1] (after 5 d 40° C./75% RH), the “DSC Extra (° C.)” value amounted to 62.8 °C, the “DSC Max (° C.)” value worked out at 77.4 °C, the IR result was “±Hydrate,” and the “TG % weight change <100° C.” value was found to be 2.33%. For the same compound, in data set [1] (fraction as such), the “DSC Extra (° C.)” value came out at 67.8 °C, the “DSC Max (° C.)” value came to 77.0 °C, the IR entry was “±Hydrate,” and the “TG % weight change <100° C.” value amounted to 3.13%.
For the compound `CC(C)CN(C[C@@H](O)[C@H](Cc1ccccc1)NC(=O)O[C@H]1CO[C@H]2OCC[C@H]21)S(=O)(=O)c1ccc(N)cc1` [Form B, (3R,3aS,6aR)-hexahydrofuro [2,3-b] furan-3-yl (1S,2R)-3-[[(4-aminophenyl)sulfonyl] (isobutyl)amino]-1-benzyl-2-hydroxypropylcarbamate], the solubility in data set [2] (0.1N HCl (pH 1.1), at least 24 hours) is listed as 150 (pH 1.1) mg/100 ml solution; in data set [2] (Buffer pH 2 (citrate/HCl) (pH 2.0), at least 24 hours), 23 (pH 2.0) mg/100 ml solution; in data set [2] (Buffer pH 3 (citrate/HCl) (pH 3.0), at least 24 hours) it was 13 (pH 3.0) mg/100 ml solution; in data set [2] (Buffer pH 4 (citrate/HCl) (pH 4.0), at least 24 hours), 12 (pH 4.0) mg/100 ml solution. The solubility (thermodynamic) stood at 5100 µg/mL (≈ 9310 µM) in data set [2] (pH 0.14, aqueous buffer, 1.0N HCl (pH 0.14), at least 24 hours) and 100 µg/mL (≈ 183 µM) in data set [2] (pH 5.1, water, Water (pH 5.1), at least 24 hours). The hygroscopicity result in data set [3] (25° C.) is “hygroscopic”. For the same compound, the “obtained product after ADS/DES” value in data set [3] (25° C.) was “mixture of hydrate and amorphous product”. The “water remained on the sample after the desorption cycle” value in data set [3] (25° C.) is given as “about 1.2%”. In data set [3] (setting [4]), the “weight loss at the drying step” value is reported as “about 5.6%”.
On to `CC(C)CN(C[C@@H](O)[C@H](Cc1ccccc1)NC(=O)O[C@H]1CO[C@H]2OCC[C@H]21)S(=O)(=O)c1ccc(N)cc1` [Form K, (3R,3aS,6aR)-hexahydrofuro [2,3-b] furan-3-yl (1S,2R)-3-[[(4-aminophenyl)sulfonyl] (isobutyl)amino]-1-benzyl-2-hydroxypropylcarbamate], for which the solubility in data set [2] (20% HPβCD in water (pH 1.6), at least 48 hours) is listed as 2100 (pH 1.6) mg/100 ml solution. Besides, the thermodynamic solubility amounted to 240 µg/mL (≈ 438 µM) in data set [2] (pH 2, aqueous buffer, 0.01N HCl (pH 2.0), at least 48 hours); 210 µg/mL (≈ 383 µM) in data set [2] (pH 2, aqueous buffer, Buffer pH 2 (citrate/HCl) (pH 2.0), at least 48 hours); 120 µg/mL (≈ 219 µM) in data set [2] (pH 3, aqueous buffer, Buffer pH 3 (citrate/HCl) (pH 3.0), at least 48 hours); 190 µg/mL (≈ 347 µM) in data set [2] (pH 3.3, water, Water (pH 3.3), at least 48 hours); 110 µg/mL (≈ 201 µM) in data set [2] (pH 4, aqueous buffer, Buffer pH 4 (citrate/HCl) (pH 4.0), at least 48 hours). Further, the results for the hygroscopicity result in data set [3] (25° C.) and in data set [3] (setting [5]) were “hygroscopic” and “slightly hygroscopic”, respectively. Besides, the “drying of the product during the desorption cycle” value in data set [3] (25° C., about 21 mg, FIG. 25) is “dried completely”; in data set [3] (setting [5]) it was “dried completely”. Also, the “weight loss at the drying step” value in data set [3] (different study, about 18 mg of the mesylate solvate, FIG. 26) is “about 0.6%”; in data set [3] (setting [4]), 0.3%.
